# Measurements as given in US11364242B2, “Treatment agents for inhibiting HIV and cancer in HIV infected patients” (UNIVERSITY OF MARYLAND, BALTIMORE, priority 2015, dated 2022).
# Read-outs that look alike come from different tables or passages of the source.
# What was measured:
# HIV-1 BaL = experiment: Antiretroviral potency with and without INK128 in PBLs infected with HIV BaL; assay type: cell-based; conditions: Human immunodeficiency virus 1, BAL, PBMC, PBMCs, two donors
# Method: PBLs were separated from buffy coats by density centrifugation over Ficoll-Hypaque (Sigma™), and activated by culture in the presence of 1 μg/mL anti-human CD3 antibody (clone x35, Fisher Scientific™) and 2 μg/mL anti-human CD28 antibody (Clone CD28.6, eBioscience™) for 3 days. Activated cells were infected by incubation with virus at a multiplicity of infection (MOI) of 0.001 for 2 hours. Infected cells were washed three times with PBS and cultured in 5% CO2 at 37° C., in RPMI/10% FBS supplemented with 100 units/mL IL-2 (Roche™) and antiviral drugs, in 96-well flat-bottom plates at a density of […] PBLs per 200 μL. Following 3 d of culture, half of the medium was replaced with fresh medium containing IL-2 and antiviral drugs. On day 7, viral replication was measured by p24 ELISA (Coulter) in culture supernatants and cell viability was measured by MTT assays.
# Available ARTs target the HIV lifecycle steps of entry, reverse transcription, integration, and maturation. […] In addition, by targeting virus transcription, INK128 could have favorable interactions with inhibitors of reverse transcription (RTIs), integration (Hs), and protease (PIs). […] We conducted these assays in activated PBLs infected with R5 HIV BaL and treated with various dilutions of Maraviroc (CCR5 antagonist), Efavirenz (RTI), Raltegravir (II), and Indinavir (PI). INK128 was used at low concentrations (<EC50) to better detect changes in ART potency (Table 7).
# Prism software. Data are from 2 experiments, each with a different donor.
# HIV-1 = experiment: HIV production in PHA activated PBMCs, p24 ELISA day 7; conditions: p24 day 7
# [1] = +3 nM INK128, read-out: EC50 (geometric mean)
# [2] = +10 nM INK128, read-out: EC50 (geometric mean)
# [3] = No INK128, read-out: EC50 (geometric mean)
EC50 (HIV-1 BaL; [1]),EC50 (HIV-1 BaL; [2]),EC50 (HIV-1 BaL; [3]),Structure (SMILES),other results
3.14 nM,3 nM,3.84 nM,CC(C)(C)NC(=O)[C@@H]1CN(Cc2cccnc2)CCN1C[C@@H](O)C[C@@H](Cc1ccccc1)C(=O)N[C@H]1c2ccccc2C[C@H]1O [IND],–
–,–,–,"Nc1ccc(-c2ccc3ncc4ccc(=O)n(-c5cccc(C(F)(F)F)c5)c4c3c2)cn1 [Torin-2, 9-(6-Amino-3-pyridinyl)-1-[3-(trifluoromethyl)phenyl]-benzo[h]-1,6-naphthyridin-2(1H)-one]",cell toxicity (PBMCs): absence of cell toxicity; HIV inhibition in vitro (HIV-1): inhibits HIV in vitro
–,–,–,Cc1nnc(C(=O)NC(C)(C)c2nc(C(=O)NCc3ccc(F)cc3)c(O)c(=O)n2C)o1 [RAL],"EC50 (HIV-1 BaL; read-out: EC50 (geometric mean), +3 nM INK128): 0.81 nM; EC50 (HIV-1 BaL; read-out: EC50 (geometric mean), +10 nM INK128): 0.57 nM; EC50 (HIV-1 BaL; read-out: EC50 (geometric mean), No INK128): 0.65 nM"
0.51 nM,0.51 nM,0.52 nM,O=C1Nc2ccc(Cl)cc2[C@@](C#CC2CC2)(C(F)(F)F)O1 [EFV],–
